Structures are written as SMILES. A value given as a limit tells only on which side of the number the result lay.

Common to all, as to type: biochemical
One test concerns the target PKC theta kinase (Homo sapiens, UniProt Q04759). The test is described as follows: PKC theta kinase inhibition, coupled-enzyme (NADH absorbance) assay, Ki. The settings on record: 240 μM ATP, 18 nM PKC theta kinase, 30° C. Here is the method:
An assay buffer solution was prepared which consisted of 100 mM HEPES (pH 7.5), 10 mM MgCl2, 25 mM NaCl, 0.1 mM EDTA and 0.01% Brij. […] To 60 μL of this enzyme buffer, in a 384 well plate, was added 2 μL of VRT stock solution in DMSO. The mixture was allowed to equilibrate for 10 mins at 30° C. […] Ki values were calculated from initial rate data by non-linear regression using the Prism software package (Prism 4.0a, Graphpad Software, San Diego, Calif.).

The next test deals with PKC delta kinase (Homo sapiens, UniProt Q05655). In words: PKC delta kinase inhibition, coupled-enzyme (NADH absorbance) assay, Ki. The settings on record: 150 μM ATP, 46 nM PKC delta kinase, 30° C.; read-out: Ki PKC delta. On the procedure: (§1) An assay buffer solution was prepared which consisted of 100 mM HEPES (pH 7.5), 10 mM MgCl2, 25 mM NaCl, 0.1 mM EDTA and 0.01% Brij. […] To 16 μL of this enzyme buffer, in a 384 well plate, was added 1 μL of VRT stock solution in DMSO. The mixture was allowed to equilibrate for 10 mins at 30° C. The enzyme reaction was initiated by the addition of 16 μL stock ATP solution prepared in assay buffer to a final assay concentration of 150 μM. Initial rate data was determined from the rate of change of absorbance at 340 nm (corresponding to stoichiometric consumption of NADH) using a Molecular Devices Spectramax plate reader (Sunnyvale, Calif.) over 15 mins at 30° C. […] Ki values were calculated from initial rate data by non-linear regression using the Prism software package (Prism 4.0a, Graphpad Software, San Diego, Calif.).
PKC delta kinase, sequence (Q05655 whole entry): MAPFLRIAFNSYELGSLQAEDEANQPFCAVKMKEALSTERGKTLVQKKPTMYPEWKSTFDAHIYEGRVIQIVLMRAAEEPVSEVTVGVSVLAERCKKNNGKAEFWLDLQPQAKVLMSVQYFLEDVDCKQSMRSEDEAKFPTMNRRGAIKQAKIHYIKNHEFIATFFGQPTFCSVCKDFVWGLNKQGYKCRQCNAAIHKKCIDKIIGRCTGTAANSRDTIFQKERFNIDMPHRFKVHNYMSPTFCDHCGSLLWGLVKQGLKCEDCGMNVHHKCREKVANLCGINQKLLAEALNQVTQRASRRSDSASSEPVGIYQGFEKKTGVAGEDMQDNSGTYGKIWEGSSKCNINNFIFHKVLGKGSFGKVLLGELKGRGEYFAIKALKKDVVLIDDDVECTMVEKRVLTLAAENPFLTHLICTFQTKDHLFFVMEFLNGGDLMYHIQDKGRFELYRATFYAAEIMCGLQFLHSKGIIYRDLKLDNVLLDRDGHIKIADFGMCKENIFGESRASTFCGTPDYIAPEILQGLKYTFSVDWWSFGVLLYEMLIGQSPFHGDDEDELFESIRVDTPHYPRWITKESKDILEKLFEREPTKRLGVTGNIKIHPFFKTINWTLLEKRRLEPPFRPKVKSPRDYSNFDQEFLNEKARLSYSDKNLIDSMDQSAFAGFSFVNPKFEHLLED

Another test deals with PKC alpha kinase (Homo sapiens, UniProt P17252). In words: PKC alpha kinase inhibition, coupled-enzyme (NADH absorbance) assay, Ki. The settings on record: 130 μM ATP, 4.5 nM PKC alpha kinase, 30° C. Here is the method:
as §1, with “EDTA, 100 μM CaCl2” for “EDTA”, “130” for “150”

PKC theta kinase, sequence (Q04759 whole entry): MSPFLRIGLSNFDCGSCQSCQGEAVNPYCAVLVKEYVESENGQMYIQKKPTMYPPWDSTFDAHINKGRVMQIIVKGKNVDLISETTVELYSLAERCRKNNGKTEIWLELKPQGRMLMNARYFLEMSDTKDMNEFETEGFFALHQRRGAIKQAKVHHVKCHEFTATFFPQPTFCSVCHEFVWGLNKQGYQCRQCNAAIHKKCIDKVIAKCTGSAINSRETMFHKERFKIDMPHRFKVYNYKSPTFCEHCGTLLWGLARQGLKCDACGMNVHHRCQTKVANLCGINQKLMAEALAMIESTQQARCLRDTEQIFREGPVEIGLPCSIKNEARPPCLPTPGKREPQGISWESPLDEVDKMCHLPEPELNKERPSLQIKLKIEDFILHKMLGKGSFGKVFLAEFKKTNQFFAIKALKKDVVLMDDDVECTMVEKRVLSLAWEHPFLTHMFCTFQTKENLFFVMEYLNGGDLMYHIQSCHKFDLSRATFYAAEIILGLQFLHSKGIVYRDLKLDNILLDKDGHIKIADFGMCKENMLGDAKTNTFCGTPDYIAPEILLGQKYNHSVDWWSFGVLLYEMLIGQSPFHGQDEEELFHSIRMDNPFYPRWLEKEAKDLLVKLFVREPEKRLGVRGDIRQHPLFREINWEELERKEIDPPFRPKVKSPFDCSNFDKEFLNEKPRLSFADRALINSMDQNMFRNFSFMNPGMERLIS

On to `CC(C)C[C@H]1CN(c2ccc(C(F)(F)F)c(-c3n[nH]c4ncccc34)n2)CCN1` [Compound 4, (S)-3-(6-(3-isobutylpiperazin-1-yl)-3-(trifluoromethyl)pyridin-2-yl)-1H-pyrazolo[3,4-b]pyridine], for which the Ki was below 0.05 µM at PKC theta kinase, above 1.25 µM at PKC delta kinase and above 1.25 µM on PKC alpha kinase.
As to `FC(F)(F)c1ccc(N2CCNC(c3ccccc3)C2)nc1-c1n[nH]c2ncccc12` (stereo not drawn) [Compound 5], the values for the Ki at PKC theta kinase, on PKC delta kinase and at PKC alpha kinase were below 0.05 µM, above 2 µM and above 1.25 µM, respectively.
For the compound `C=C(F)c1ccc(N2CCN[C@@H](CC(C)C)C2)nc1-c1n[nH]c2ncccc12` [Compound 6], the Ki at PKC theta kinase was below 0.05 µM; on PKC delta kinase, below 0.5 µM; at PKC alpha kinase, below 0.5 µM.
Turning to `FC(F)(F)c1ccc(N2CCNCC2)nc1-c1n[nH]c2ncccc12` [Compound 8], the Ki on PKC theta kinase was below 0.5 µM; on PKC delta kinase it was below 2.8 µM; at PKC alpha kinase, above 1.25 µM.
In the same order, the values of `CC(C)C[C@H]1CN(c2cccc(-c3n[nH]c4ncccc34)n2)C[C@H](C)N1` [Compound 10] are below 2.8 µM, above 2 µM and above 1.25 µM.
With `CC(C)C[C@H]1CN(c2cccc(-c3n[nH]c4ncccc34)n2)C[C@@H](C)N1` [Compound 11], the Ki on PKC theta kinase was below 0.05 µM; on PKC delta kinase, below 0.05 µM; on PKC alpha kinase, below 2.8 µM.
For the compound `CC[C@H]1CN(c2cccc(-c3n[nH]c4ncccc34)n2)C[C@H](CC(C)C)N1` [Compound 12], the figures for the Ki at PKC theta kinase, on PKC delta kinase and on PKC alpha kinase were below 0.5 µM, above 2 µM and above 1.25 µM, respectively.
Turning to `CC[C@@H]1CN(c2cccc(-c3n[nH]c4ncccc34)n2)C[C@H](CC(C)C)N1` [Compound 13], the Ki is below 0.05 µM on PKC theta kinase, below 0.5 µM at PKC delta kinase and below 2.8 µM at PKC alpha kinase.
As for `CCC[C@H]1CN(c2cccc(-c3n[nH]c4ncccc34)n2)C[C@H](CC(C)C)N1` [Compound 14], the Ki is below 0.5 µM on PKC theta kinase, below 2.8 µM at PKC delta kinase and above 1.25 µM on PKC alpha kinase.
For `CCC[C@@H]1CN(c2cccc(-c3n[nH]c4ncccc34)n2)C[C@H](CC(C)C)N1` [Compound 15], the Ki was below 0.05 µM at PKC theta kinase, below 0.5 µM at PKC delta kinase and below 2.8 µM at PKC alpha kinase.
Consider `Cc1cccc(C2CN(c3cccc(-c4n[nH]c5ncccc45)n3)CCN2)c1` (stereo not drawn) [Compound 16], for which the figures for the Ki on PKC theta kinase, at PKC delta kinase and on PKC alpha kinase were below 0.5 µM, above 2 µM and below 2.8 µM, respectively.
`Cc1ccc(C2CN(c3cccc(-c4n[nH]c5ncccc45)n3)CCN2)cc1` (stereo not drawn) [Compound 17]: the Ki was below 0.5 µM at PKC theta kinase, above 2 µM on PKC delta kinase and below 2.8 µM on PKC alpha kinase.
As for `Clc1cccc(C2CN(c3cccc(-c4n[nH]c5ncccc45)n3)CCN2)c1` (stereo not drawn) [Compound 18], the Ki is below 0.05 µM at PKC theta kinase, below 2.8 µM on PKC delta kinase and below 2.8 µM on PKC alpha kinase.
In the case of `CC(=O)N1CCN(c2cccc(-c3n[nH]c4ncccc34)n2)CC1` [Compound 20], the Ki at PKC theta kinase was above 0.7 µM; at PKC delta kinase, above 2 µM; at PKC alpha kinase, above 1.25 µM.
As to `OC1CCN(c2cccc(-c3n[nH]c4ncccc34)n2)CC1` [Compound 22], the results for the Ki at PKC theta kinase, on PKC delta kinase and at PKC alpha kinase were above 0.7 µM, above 2 µM and above 1.25 µM, respectively.
Regarding `CC1CN(c2cccc(-c3n[nH]c4ncccc34)n2)C(C)CN1` (stereo not drawn) [Compound 23], the Ki is above 0.7 µM on PKC theta kinase, above 2 µM on PKC delta kinase and above 1.25 µM at PKC alpha kinase.
The like results for `CNC1CCN(c2cccc(-c3n[nH]c4ncccc34)n2)C1` (stereo not drawn) [Compound 24] were, in that order, below 2.8 µM, above 2 µM and above 1.25 µM.
In the case of `FC(F)(F)C1CN(c2cccc(-c3n[nH]c4ncccc34)n2)CCN1` (stereo not drawn) [Compound 25], the Ki at PKC theta kinase is below 0.5 µM; at PKC delta kinase it was below 2.8 µM; on PKC alpha kinase, above 1.25 µM.
The like results for `CN1CCN(c2cccc(-c3n[nH]c4ncccc34)n2)CC1` [Compound 26] were, in that order, below 0.5 µM, above 2 µM and above 1.25 µM.
Consider `c1cc(-c2n[nH]c3ncccc23)nc(N2CCOCC2)c1` [Compound 27], for which the figures for the Ki on PKC theta kinase, at PKC delta kinase and at PKC alpha kinase were above 0.7 µM, above 2 µM and below 2.8 µM, respectively.
In the same order, the values of `FC(F)(F)CC1CN(c2cccc(-c3n[nH]c4ncccc34)n2)CCN1` (stereo not drawn) [Compound 28] are below 0.05 µM, below 0.5 µM and below 2.8 µM.
In the same order, the values of `CC(C)C[C@H]1CN(c2ccc(C(F)(F)F)c(-c3n[nH]c4ncc(Br)cc34)n2)CCN1` [Compound 29] are below 0.5 µM, above 2 µM and below 2.8 µM.
In the same order, the values of `C[C@H]1CNCCN1c1cccc(-c2n[nH]c3ncccc23)n1` [Compound 30] are below 0.05 µM, below 0.5 µM and below 0.5 µM.
Turning to `C[C@@H]1CNCCN1c1cccc(-c2n[nH]c3ncccc23)n1` [Compound 31], the values for the Ki on PKC theta kinase, on PKC delta kinase and on PKC alpha kinase were below 0.5 µM, below 2.8 µM and above 1.25 µM, respectively.
The like results for `Cc1ccccc1C1CN(c2cccc(-c3n[nH]c4ncccc34)n2)CCN1` (stereo not drawn) [Compound 32] were, in that order, below 0.05 µM, below 0.5 µM and below 0.5 µM.
In the same order, the values of `N[C@@H]1CCN(c2cccc(-c3n[nH]c4ncccc34)n2)C1` [Compound 33] are below 0.5 µM, below 2.8 µM and above 1.25 µM.
Turning to `CN1CCCN(c2cccc(-c3n[nH]c4ncccc34)n2)CC1` [Compound 34], the figures for the Ki on PKC theta kinase, on PKC delta kinase and at PKC alpha kinase were below 0.5 µM, above 2 µM and below 0.5 µM, respectively.
On to `COc1cccc(C2CN(c3cccc(-c4n[nH]c5ncccc45)n3)CCN2)c1` (stereo not drawn) [Compound 35], for which the Ki at PKC theta kinase was below 0.5 µM; at PKC delta kinase it was above 2 µM; at PKC alpha kinase, below 0.5 µM.
As to `CC(C)(O)CC1CN(c2cccc(-c3n[nH]c4ncccc34)n2)CCN1` (stereo not drawn) [Compound 36], the values for the Ki at PKC theta kinase, at PKC delta kinase and at PKC alpha kinase were below 0.05 µM, below 0.5 µM and below 2.8 µM, respectively.
Consider `c1ccc(C[C@H]2CN(c3cccc(-c4n[nH]c5ncccc45)n3)CCN2)cc1` [Compound 37], for which the Ki at PKC theta kinase is below 0.05 µM; on PKC delta kinase, below 2.8 µM; at PKC alpha kinase, above 1.25 µM.
Turning to `CC(C)C[C@H]1CN(c2cccc(-c3n[nH]c4ncc(Cl)cc34)n2)CCN1` [Compound 38], the results for the Ki on PKC theta kinase, at PKC delta kinase and at PKC alpha kinase were below 0.05 µM, below 0.5 µM and below 0.5 µM, respectively.
Consider `CC(C)C[C@H]1CN(c2cncc(-c3n[nH]c4ncccc34)n2)CCN1` [Compound 39, (S)-3-(6-(3-isobutylpiperazin-1-yl)pyrazin-2-yl)-1H-pyrazolo[3,4-b]pyridine], for which the values for the Ki on PKC theta kinase, at PKC delta kinase and on PKC alpha kinase were below 0.05 µM, below 0.5 µM and below 2.8 µM, respectively.
On to `Cc1ccc(-c2n[nH]c3ncccc23)nc1N1CCN[C@@H](CC(C)C)C1` [Compound 40], for which the Ki was below 0.5 µM at PKC theta kinase, below 2.8 µM at PKC delta kinase and above 1.25 µM on PKC alpha kinase.
The like results for `c1cc(-c2n[nH]c3ncccc23)nc(N2CCNC(C3CC3)C2)c1` (stereo not drawn) [Compound 41] were, in that order, below 0.05 µM, below 0.5 µM and above 1.25 µM.

The values are drawn from patent publication US9193722B2, “Tri-cyclic pyrazolopyridine kinase inhibitors” (Vertex Pharmaceuticals Incorporated, priority 2008, dated 2015).
